Experiment [1] relates to human hepatic cancer cell line HAK4. Briefly: Annexin V apoptosis, combined use of 5FU and BCAA, HAK4 cells. The class given is cell-based. To be noted: 72 hr, BCAA 2 mM, 5FU 2.5 μg/ml. As to the method: Human hepatic cancer cell line HAK4 cells were plated at a concentration of 3000 cells/well in a plate, and cultured 30 under the following conditions for 72 hr: • LC 2.5% medium • BCAA (2 mM) • 5FU (2.5 μg/ml) • BCAA (2 mM)+5FU (2.5 μg/ml)
(§1) After 72 hr, using ApoAlert Annexin V-FITC Apoptosis kit (Clontech), the cells were stained with annexin V and fixed, and apoptotic cells (%) were detected by Array Scan (Thermo Fisher).
To be specific, the cells in the 96 well plate were rinsed with 1×Binding Buffer, 40 μl of 1×Binding Buffer containing annexin V (1 μl) was added to each well, and the cells were incubated in the dark at room temperature for 5-15 min. The cells were washed, and fixed with 2% formaldehyde. 100 μl of PBS containing Hoechst33258 solution was added, and the cells were incubated in the dark for 5 min, and apoptotic cells (%) were detected by Array Scan.

Experiment [2] concerns HAK1B cells. Briefly: HAK1B subcutaneous transplant in nude mice, tumor weight and volume. It counts as in vivo, BALB/c nude mice. The note with it: 5FU 250 μg/tumor into the tumor, 3(w/w)% BCAA mixed feed for 2 weeks, vs control group. The method, then:
HAK1B cells were subcutaneously transplanted to 7-week-old female BALB/c nude mice (purchased from Japan Charles River) at 7,000,000 cells/mouse. After 1 week, the mice were grouped based on the tumor area. 5FU 250 μg/tumor (vehicle 10% DMSO/DW) was administered into the tumor (see Cancer Research, 70(11), 4687-4697, 2010), as well as a 3(w/w) % BCAA mixed feed or a 3(w/w) % casein mixed feed was given for 2 weeks. That is, treatments of 4 groups are as described below: • group 1: vehicle+casein mixed feed (control group) • group 2: 5FU+casein mixed feed • group 3: vehicle+BCAA mixed feed • group 4: 5FU+BCAA mixed feed
Using a vernier caliper, the tumor volume (longest Diameter×shortest diameter×height (mm^3)) was measured from the outer side of the tumor to monitor time-course changes in the tumor volume. On day 43, autopsy was performed, and the weight and volume of the tumor were measured.

For experiment [3], the system named is HCT116 cells (human colorectal cancer cell line). Briefly: Annexin V apoptosis, combined use of 5FU and BCAA, HCT116 cells. The class given is cell-based. The note with it: 72 hr, BCAA 2 mM, 5FU 2 μg/ml. As to the method:
HCT116 cells (human colorectal cancer cell line) were plated at a concentration of 4000 cells/well in a plate, and cultured under the following conditions for 72 hr: • LC 2.5% medium • BCAA (2 mM) • 5FU (2 μg/ml) • BCAA (2 mM)+5FU (2 μg/ml)
as §1

The test system of experiment [4] is MKN45 cells (human gastric cancer cell line). Briefly: WST-8 viable cell assay, 5FU and BCAA, MKN45 cells. It counts as cell-based. To be noted: 72 hr, BCAA 2 mM or 4 mM, 5FU 0.05-1 μg/ml. As to the method:
MKN45 cells (human gastric cancer cell line) were plated in a 96 well plate at a concentration of 4000 cells/100 μl/well, and cultured under the following conditions for 72 hr: • LC medium (10% FBS) • LC medium +BCAA (2 mM or 4 mM) • LC medium +5FU (0.05 μg/ml, 0.1 μg/ml, 0.5 μg/ml or 1 μg/ml) • LC medium +BCAA (2 mM or 4 mM) +5FU (0.05 μg/ml, 0.1 μg/ml, 0.5 μg/ml or 1 μg/ml)
After 72 hr, WST-8 reagent was added (10 μl/well) and, after color development for 1 hr, the absorbance of OD 450 nm was measured. The absorbance of each group was shown by a is relative value provided that the absorbance of a non-stimulation group was assumed to be 1000. WST-8 is reduced by intracellular dehydrogenase to produce water-soluble formazan. By directly measuring the absorbance of formazan at 450 nm, the number of viable cells can be easily measured. The cell number and the amount of produced formazan are in a linear proportional correlation.

Experiment [5] has as its system human breast cancer cell line MDA-MB231. Briefly: Growth of MDA-MB231 cells (cell number, Hoechst staining). It counts as cell-based. The note with it: 5 days, 5-FU 0.25 μg/ml, BCAA 4 mM. As to the method: MDA-MB231 cells were suspended in RPMI-10% (RPMI medium containing 10% FBS), and plated in a plate at 2000 cells/well. The next day, the medium was exchanged to those shown below, and the cells were further cultured for 5 days. • group 1: RPMI-10% • group 2: RPMI-10% containing BCAA (4 mM) • group 3: RPMI-10% containing 5-FU (0.25 μg/m1) • group 4: RPMI-10% containing 5-FU (0.25 μg/ml) +BCAA (4 mM)
After 5 days, cellular nucleus was stained with Hoechst reagent, and the cell number was counted. In groups 1 and 2, cells were stained with anti-CD44 antibody, and the ratio of CD44 positive cells was analyzed by Array Scan using fluorescence microscopic quantification apparatus (Thermo Fisher).

As for `O=c1[nH]cc(F)c(=O)[nH]1` [5FU, 5-fluorouracil], the “apoptotic cells (Annexin V positive cells)” value in experiment [1] and in experiment [3] was “increased” throughout. The tumor volume entry in experiment [2] is given as “significantly decreased”. In addition, the tumor weight entry in experiment [2] is recorded as “significantly decreased”. The “number of viable cells (WST-8, OD 450 nm)” value in experiment [4] is recorded as “decreased”. Moreover, the “number of viable cells (cell number)” value in experiment [5] was “decreased”.

The values are drawn from patent US20130324541A1, “POTENTIATOR OF ANTITUMOR ACTIVITY OF CHEMOTHERAPEUTIC AGENT” (Ajinomoto Co., Inc., priority 2011, published 2013).
